Data published in patent publication EP0745595A1, “3-(3-Aryloxyphenyl)-1-(substituted methyl)-s-triazine-2,4,6-oxo or thiotrione herbicidal agents” (American Cyanamid Company, priority 1995, dated 1996).

What was measured:
Assay type in all cases: in vivo
CASSIA OBTUSIFOLIA, L. = assay: Preemergence herbicidal evaluation, CASOB (Sicklepod); conditions: rated four to five weeks after treatment
Method in brief: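 Seeds of various monocot and dicot plants, including sicklepod, were each mixed with potting soil and sown on roughly one inch of soil in separate pint cups for preemergence testing. Treated cups were kept on greenhouse benches, watered and maintained conventionally. Four to five weeks after treatment, each cup was visually rated on a 0-9 scale against a control.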

CHENOPODIUM ALBUM, L. = assay: Preemergence herbicidal evaluation, CHEAL (Lambsquarters, Common); conditions: rated four to five weeks after treatment
Method in brief: (§1)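 Seeds sown in potting soil cups, then sprayed preemergence with aqueous acetone compound solution at about 0.125 to 0.50 kg per hectare. Greenhouse-grown, rated 4–5 weeks after treatment on a 0–9 visual scale against control.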

IPOMOEA SPP. = assay: Preemergence herbicidal evaluation, IPOSS (Morningglory spp.); conditions: rated four to five weeks after treatment
Description: (§2) Results of herbicide evaluation are expressed on a rating scale (0-9). The scale is based upon a visual observation of plant stand, vigor, malformation, size, chlorosis and overall plant appearance as compared with a control.
(§3) The preemergence herbicidal activity of the test compounds of the present invention is exemplified by the following tests in which the seeds of a variety of monocotyledonous and dicotyledonous plants are separately mixed with potting soil and planted on top of approximately one inch of soil in separate pint cups. […] The treated cups are then placed on greenhouse benches, watered and cared for in accordance with conventional greenhouse procedures. From four to five weeks after treatment, the tests are terminated and each cup is examined and rated according to the rating system provided in Example 40.
(§4) The compounds evaluated are reported by compound number given in Example 40.

[1] = system: ECHINOCHLOA CRUS-GALLI, (L) BEAU; assay: Preemergence herbicidal evaluation, ECHCG (Barnyardgrass); conditions: rated four to five weeks after treatment
Method in brief: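 Barnyardgrass seeds were mixed with potting soil and planted on about one inch of soil in pint cups for preemergence testing. Treated cups were kept on greenhouse benches, watered and maintained by standard greenhouse practice. After four to five weeks, each cup was visually rated on a 0-9 scale against an untreated control.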

[2] = system: SETARIA VIRIDIS, (L) BEAU; assay: Preemergence herbicidal evaluation, SETVI (Foxtail, Green); conditions: rated four to five weeks after treatment
Description: as §2, §3, §4

[3] = system: GLYCINE MAX(L) MERR. CV. WILLIAMS; assay: Preemergence herbicidal evaluation, GLXMAW (Soybean, Williams); conditions: rated four to five weeks after treatment
Method in brief: as §1

[4] = system: ORYZA SATIVA, L. TEBONNET; assay: Preemergence herbicidal evaluation, ORYSAT (Rice, Tebonnet); conditions: rated four to five weeks after treatment
Description: as §2, §3, §4

ZEA MAYS L. = assay: Preemergence herbicidal evaluation, ZEAMX (Corn, Field); conditions: rated four to five weeks after treatment
Method in brief: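 Corn (Zea mays) seeds were mixed with potting soil and planted on about one inch of soil in pint cups, then treated preemergence. Cups were kept on greenhouse benches, watered and maintained conventionally, and after four to five weeks were visually rated on a 0-9 scale versus an untreated control.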

[5] = system: ECHINOCHLOA ORYZOIDES (ARD.)FRITSCH; assay: Preemergence weed control under flooded paddy conditions, ECHORC (Watergrass (Calif.)); conditions: preemergence, 3-4 weeks after treatment
Method in brief: (§5)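 Seeds or propagules were planted 0.5 cm deep in silt loam, with flood water held at 1.5 to 3 cm. Compound in 50/50 aqueous/acetone was pipetted into the flood water at about 0.5, 0.25, 0.125 and 0.063 kg/ha. Injury was rated visually on a 0-9 scale against a control 3-4 weeks after treatment.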

[6] = system: CYPERUS SEROTINUS, ROTTB.; assay: Preemergence weed control under flooded paddy conditions, CYPSE (Flatsedge); conditions: preemergence, 3-4 weeks after treatment
Method in brief: as §5

SAGITTARIA PYGMAEA, L. = assay: Preemergence weed control under flooded paddy conditions, SAGPY (Arrowhead (Pygmaea)); conditions: preemergence, 3-4 weeks after treatment
Method in brief: as §5

[7] = system: ORYZA SATIVA, L. TEBONNET; assay: Rice tolerance to post-transplant applications under flooded paddy conditions, ORYSAT (Rice, Tebonnet); conditions: post-transplant rice, 3-4 weeks after treatment
Method in brief: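 Two ten-day-old Tebonnet rice seedlings transplanted into silt loam, flooded 1.5–3 cm; three days later the water surface treated with compounds in acetone/water at about 0.5, 0.25, 0.125 and 0.063 kg/ha. Visual 0–9 injury rating versus control after 3–4 weeks in greenhouse.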

`COC(=O)Cn1c(=O)[nH]c(=O)n(-c2cc(Oc3ccc(Cl)cc3Cl)ccc2[N+](=O)[O-])c1=O` [Compound 14, Methyl 3-[5-(2,4-dichlorophenoxy)-2-nitrophenyl]tetrahydro-2,4,6-trioxo-s-triazine-1(2H)-acetate] gave a CASOB herbicidal rating (CASSIA OBTUSIFOLIA, L.; Rate 0.125 kg/ha) of 0.0, a CASOB herbicidal rating (CASSIA OBTUSIFOLIA, L.; Rate 0.250 kg/ha) of 0.0 and a CASOB herbicidal rating (CASSIA OBTUSIFOLIA, L.; Rate 0.500 kg/ha) of 0.0. For the same molecule, the CHEAL herbicidal rating (CHENOPODIUM ALBUM, L.; Rate 0.125 kg/ha) was 9.0, the CHEAL herbicidal rating (CHENOPODIUM ALBUM, L.; Rate 0.250 kg/ha) was 9.0 and the CHEAL herbicidal rating (CHENOPODIUM ALBUM, L.; Rate 0.500 kg/ha) was 9.0. The IPOSS herbicidal rating (IPOMOEA SPP.; Rate 0.125 kg/ha) was 0.0, the IPOSS herbicidal rating (IPOMOEA SPP.; Rate 0.250 kg/ha) was 0.0 and the IPOSS herbicidal rating (IPOMOEA SPP.; Rate 0.500 kg/ha) was 0.0. The ECHCG herbicidal rating ([1]; Rate 0.125 kg/ha) was 0.0, the ECHCG herbicidal rating ([1]; Rate 0.250 kg/ha) was 0.0 and the ECHCG herbicidal rating ([1]; Rate 0.500 kg/ha) was 0.0. It also gave an SETVI herbicidal rating ([2]; Rate 0.125 kg/ha) of 0.0, an SETVI herbicidal rating ([2]; Rate 0.250 kg/ha) of 0.0 and an SETVI herbicidal rating ([2]; Rate 0.500 kg/ha) of 0.0. It also gave a GLXMAW herbicidal rating ([3]; Rate 0.125 kg/ha) of 0.0, a GLXMAW herbicidal rating ([3]; Rate 0.250 kg/ha) of 0.0 and a GLXMAW herbicidal rating ([3]; Rate 0.500 kg/ha) of 0.0. For the same molecule, the ORYSAT herbicidal rating ([4]; Rate 0.125 kg/ha) was 1.0, the ORYSAT herbicidal rating ([4]; Rate 0.250 kg/ha) was 1.0 and the ORYSAT herbicidal rating ([4]; Rate 0.500 kg/ha) was 1.0. It also gave a ZEAMX herbicidal rating (ZEA MAYS L.; Rate 0.125 kg/ha) of 0.0, a ZEAMX herbicidal rating (ZEA MAYS L.; Rate 0.250 kg/ha) of 0.0 and a ZEAMX herbicidal rating (ZEA MAYS L.; Rate 0.500 kg/ha) of 0.0. The “Herbicidal effect rating, ECHORC” value ([5]; 0.063 kg/ha) was 0.0, the “Herbicidal effect rating, ECHORC” value ([5]; 0.125 kg/ha) was 0.0 and the “Herbicidal effect rating, ECHORC” value ([5]; 0.250 kg/ha) was 0.0. For the same molecule, the “Herbicidal effect rating, ECHORC” value ([5]; 0.500 kg/ha) was 0.0, the “Herbicidal effect rating, CYPSE” value ([6]; 0.063 kg/ha) was 0.0 and the “Herbicidal effect rating, CYPSE” value ([6]; 0.125 kg/ha) was 0.0. The “Herbicidal effect rating, CYPSE” value ([6]; 0.250 kg/ha) was 0.0, the “Herbicidal effect rating, CYPSE” value ([6]; 0.500 kg/ha) was 0.0 and the “Herbicidal effect rating, SAGPY” value (SAGITTARIA PYGMAEA, L.; 0.063 kg/ha) was 0.0. The “Herbicidal effect rating, SAGPY” value (SAGITTARIA PYGMAEA, L.; 0.125 kg/ha) was 0.0, the “Herbicidal effect rating, SAGPY” value (SAGITTARIA PYGMAEA, L.; 0.250 kg/ha) was 0.0 and the “Herbicidal effect rating, SAGPY” value (SAGITTARIA PYGMAEA, L.; 0.500 kg/ha) was 0.0. For the same molecule, the “Herbicidal effect rating, ORYSAT” value ([7]; 0.063 kg/ha) was 0.0, the “Herbicidal effect rating, ORYSAT” value ([7]; 0.125 kg/ha) was 0.0 and the “Herbicidal effect rating, ORYSAT” value ([7]; 0.250 kg/ha) was 0.0. For the same molecule, the “Herbicidal effect rating, ORYSAT” value ([7]; 0.500 kg/ha) was 0.0.
